# Experimental data from US10905702B2 (priority 2016, dated 2021).
# Read-outs that look alike come from different tables or passages of the source.
# Columns and labels:
# [1] = tested on: SOCS1, SOCS3, SOCS4 expression in A549 cells; assay: SOCS expression in A549 cells incubated with rhGal3 with or without TDG (quantitative realtime PCR); format: cell-based, human
# Procedure: A549 cells were grown in 12-well plates and incubated with 0˜30 μg/ml of rhGal3 for 1 hour. After washing, RNA was extracted from the cells and subjected to reverse-transcription, followed by quantitative realtime PCR with designed primers for SOCS1, SOCS3, SOCS4, and beta-actin. Ct values were calculated and the relative expression level was calculated as 2^(Ct actin−Ct target).
# SOCS1 = format: cell-based, human; settings: 15 μg/ml, 1 h
# RIG1 = format: cell-based, human
# [2] = tested on: ERK, AKT, p38 MAPK, STAT1 and NF-κB phosphorylation in A549 cells; format: cell-based, human
# A549 cells = format: cell-based, human; settings: for extracellular cytokine levels: A549 cells, treatment alone vs untreated cells, FIG. 7
# [3] = molecular target: T1, rhGal3 binding onto A549 cells (Homo sapiens, UniProt P17931); assay: Flow cytometry of rhGal3 binding to A549 cells and its inhibition; format: cell-based
# T1 construct: made in house; host or cells: Escherichia coli BL21 (DE3)
# recombinant human Gal3 = molecular target: T2, recombinant human Gal3 (Homo sapiens, UniProt P17931); assay: Inhibition of hGal3 binding to asialofetuin (microtiter plate); settings: biotinylated rhGal3 5 ug/ml pre-mixed with inhibitor; TDG 5 mM; Lac 50 mM; FIG. 12
# T2 construct: made in house; host or cells: Escherichia coli BL21 (DE3)
# Procedure: Ninety-six well microtiter plates were coated with 1 ug/well of asialofetuin (10 μg/ml in PBS, 100 ul each well) for 3 h at 37° C., washed and blocked with 3% BSA in PBS overnight at 4° C. […] The reaction was stopped with 1 M HCl and the optical density (OD) at 450 nm from each well was measured by SpectraMax 340 plate reader (Molecular Device).
# [4] = A549 cells, treatment alone, vs control
# [5] = NeuK-treated A549 cells, 15 μg/ml
# [6] = A549 cells pre-exposed to NeuK, 15 μg/ml
# [7] = hGal3 10 μg/ml pre-mixed with 0~10 mM disaccharide
# T1 sequence (P17931 whole entry): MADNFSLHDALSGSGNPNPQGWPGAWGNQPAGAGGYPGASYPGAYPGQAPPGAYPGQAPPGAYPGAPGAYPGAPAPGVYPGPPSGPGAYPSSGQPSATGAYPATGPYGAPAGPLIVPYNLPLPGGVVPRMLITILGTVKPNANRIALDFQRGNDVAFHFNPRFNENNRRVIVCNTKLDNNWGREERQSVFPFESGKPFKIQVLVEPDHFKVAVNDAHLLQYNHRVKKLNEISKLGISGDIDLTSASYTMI
# T2 sequence (P17931 whole entry): as above
compound,measurement,setting,value
rhGal3: recombinant human galectin-3,"SOCS expression (SOCS1, SOCS3, SOCS4)","[1]; 0~30 μg/ml rhGal3, 1 hour, FIG. 16",suppress SOCS expression in dose-dependent manner
same,"SOCS1 expression, downregulated",SOCS1; untreated or NeuK-treated A549 cells,60-70 % of the control levels
same,"RIG1 expression, downregulated to","RIG1; NeuK treatment followed by exposure, 15 μg/ml",about 20 % of the unexposed controls
same,"RIG1 expression, increase","RIG1; treatment alone, A549 cells",about 4 fold
same,phosphorylation level of AKT,[2]; [4],up to 4 fold
same,phosphorylation level of ERK,[2]; [4],increased
same,phosphorylation level of STAT1,[2]; [4],increased
same,phosphorylation level of p38,[2]; [4],remained unchanged
same,"phosphorylation of p38, decrease",[2]; NeuK-treated A549 cells compared with effect on untreated cells,more than 50%
same,phosphorylation level of AKT,[2]; [5],1.5 fold
same,phosphorylation level of ERK,[2]; [5],3 fold
same,"IL-1β, IL-10 and IL-12 levels in culture supernatant",A549 cells; [6],had no effect
same,"IL-6 level in culture supernatant, increase",A549 cells; [6],8 fold
same,"IL-8 level in culture supernatant, increase",A549 cells; [6],15 fold
same,"IL-15 level in culture supernatant, increase",A549 cells; [6],20 fold
same,extracellular cytokine levels,A549 cells,"increased levels of IFNγ, TNFα, IL-10, IL-6, and IL-8"
"CC(=O)N[C@H]1C(O)O[C@H](CO)[C@H](O)[C@@H]1O[C@@H]1O[C@H](CO)[C@H](O)[C@H](O)[C@H]1O (stereo partly shown) [TF disaccharides, Galβ1,3GalNAc]",inhibition of hGal3 binding onto A549 cells (MFI),[3]; [7],inhibit the binding
"OC[C@H]1O[C@@H](S[C@@H]2O[C@H](CO)[C@H](O)[C@H](O)[C@H]2O)[C@H](O)[C@@H](O)[C@H]1O [TDG, thiodigalactoside]",inhibition of rhGal3 binding to asialofetuin (OD 450 nm),recombinant human Gal3,partially inhibit
same,inhibition of hGal3 binding onto A549 cells (MFI),[3]; [7],inhibit the binding
same,inhibition of hGal3 binding onto A549 cells (MFI),"[3]; hGal3 pre-mixed with Lac 50 mM, TDG 50 mM or 10 mM",inhibit binding well
same,"SOCS expression (SOCS1, SOCS3, SOCS4)","[1]; 30 μg rhGal3 pre-mixed with TDG 50 mM, one hour, FIG. 17",offset all the galectin's effect in suppressing SOCS expression
same,SOCS expression,"[1]; disaccharide (TDG 50 mM) alone, one hour",some positive effect in SOCS expression
rhGal1: recombinant human galectin-1,SOCS1 expression,SOCS1; A549 cells pre-treated with NeuK,returned to the control levels
same,"SOCS1 expression, decrease",SOCS1; untreated A549 cells,20-30%
same,"RIG1 expression, increase","RIG1; NeuK-pretreated A549 cells, 15 μg/ml",about 12 fold
same,"RIG1 expression, decreased to","RIG1; exposure alone, A549 cells, 15 μg/ml",about 50 % of the unexposed control
same,phosphorylation level of ERK,[2]; [5],increased
same,phosphorylation level of STAT1,[2]; [5],increased
same,phosphorylation level of p38,[2]; [5],remained at the level of the NeuK-treated A549 control
same,"phosphorylation level of AKT, decreased to","[2]; untreated A549 cells, 15 μg/ml",50 % of the control level
same,"IL-6 level in culture supernatant, increase",A549 cells; [6],4 fold
same,"IL-8 level in culture supernatant, increase",A549 cells; [6],5 fold
same,"IL-15 level in culture supernatant, increase",A549 cells; [6],25 fold
same,extracellular cytokine levels,A549 cells,"the levels of IFNγ, IL-6, IL-8, and IL-10 increased"
